From patent US20090247520A1, “INHIBITORS OF ANTIGEN RECEPTOR-INDUCED NF-kappa B ACTIVATION” (The Burnham Institute for Medical Research, priority 2008, published 2009)

Legend:
[1] = system: XIAP plus TAB induced NF-κB activation; test: NF-κB reporter in 293-NF-κB-luciferase cells transfected with XIAP plus TAB; type: cell-based; conditions: CID-2858522 4 μM, IKK inhibitor 10 μM
Description: FIGS. 3 (A-F) HEK293-NF-κB-luc cells were pretreated with CID-2858522 (4 μM), IKK inhibitor, BMS-335541 (10 μM), or PKC inhibitor, Bisindolylmaleimide I (1 μM) for 2 hrs and then transfected with plasmids encoding CD4/TLR4 (A), CD40 (B), NOD1 (C), NOD2 (D), cIAP2-MALT1 (E), or XIAP and TAB (F), or pcDNA as control (compounds were not removed). After 48 hrs, luciferase activity was measured expressing data as fold increase relative to unstimulated cells (mean±SD; n=3). (G-H) HEK293-NF-κB-luc cells were pretreated with CID-2858522 (4 μM), or IKK inhibitor, BMS-335541 (10 μM) for 2 hrs and then cultured with 2 μM doxorubicin (G) or 16 μM retinoic acid (H). After 48 hrs, luciferase activity was measured as above.
Counter Screening and Secondary Assays. To counter-screen for inhibitors of the TNF pathway, HEK293-NFκB-Luc cells were seeded at 10^5 cells per well in 90 μL medium in white 96-well plates (Greiner Bio-One) and cultured overnight, before adding compounds (5 μL in medium) to cells. After 2 h incubation, 5 μL TNF (200 ng/mL) (R&D Systems) was added (final concentration 10 ng/mL) and cells were incubated for 16 h. Luciferase activity was measured using Britelite kit (Perkin Elmer). To counter-screen for inhibitors of NF-κB induced by TLR4, CD40, NOD1, NOD2, cIAP2/MALT, or XIAP/TAB, the 293-NF-κB-luc cells cultured in 96 well plates as above were pretreated with compounds for 2 h and then transfected using Lipofectamine 2000 with various plasmids including pcDNA3 (“empty vector” control) or plasmids encoding CD4-TLR4, CD40, NOD1, NOD2, cIAP2/MALT, XIAP/TAB, using 0.2 μL of transfection reagent containing 100 ng DNA per well. Cells were cultured in medium containing CID-2858522 or other compounds and luciferase activity was measured 48 h later. […] Reactions were then initiated by addition of 50 μL 160 nM ATP (Sigma) in PBS and luciferase activity was measured 2 h later using a luminometer (LJL Biosystems, Sunnyvale, Calif.).

[2] = system: CARMA/MALT1/Bcl-10 complex; test: Co-immunoprecipitation of CARMA1/CARMA3 with Bcl-10, MALT, TRAF6, IKKγ, Caspase-8 in transfected HEK293 cells; type: cell-based; conditions: for inhibition of PMA-induced association of CARMA1 or CARMA3 with Bcl-10, MALT, TRAF6, IKKγ, Caspase-8: CID-2858522 4 μM, Bisindolylmaleimide I 1 μM
Description: FIG. 7. CID-285852 inhibits IKKβ phosphorylation induced by PKC activators. (A) HEK293 cells were cultured in 0.5% FBS medium for 24 h and then treated with CID-2858522 (4 μM) or PKC inhibitor, Bisindolylmaleimide I (1 μM) for 2 hrs followed by PMA/Ionomycin (10 ng/mL; 5 ng/mL) for 2 h. Cell lysates were subjected to immunoprecipitation using anti-CARMA1 antibody and analyzed by immunoblotting with anti-phospho-CARMA1 antibody or anti-CARMA1 antibody. (B-E) HEK293 cells were transfected with plasmids encoding myc-CARMA1 in combination with plasmids encoding various other proteins including Caspase-8 (cys287ala) (B), HA-IKK-γ (C), HA-TAK1 (D), and TRAF6 (E). After 36 h. cells were cultured in 0.5% FBS medium for 12 h and then treated with CID-2858522 (4 μM) or Bisindolylmaleimide I (1 μM) for 2 hrs, followed by PMA/Ionomycin treatment (10 ng/mL; 5 ng/mL) for 2 hrs. Cell lysates were immunoprecipated using anti-myc antibody and analyzed by immunoblotting using anti-Caspase8 (B), anti-HA (C,D), or anti-TRAF6 (E) antibodies. (F) HEK293 cells were treated with CID-2858522 (4 μM) or PKC inhibitor (1 μM) followed by PMA/Ionomycin (10 ng/mL; 5 ng/mL) treatment for 2 hrs. Cell lysates were normalized for protein content and analyzed by immunoblotting using anti-FLIP and anti-alpha-tubulin antibodies. […] Cell lysates were immunoprecipitated using anti-IKK-β and analyzed by immunoblotting using anti-phospho-IKK-β antibody or anti-IKK-β antibody (as loading control). Approximate molecular weights of all proteins are indicated in kiloDaltons.
Mapping the site of action of CID-2858522 in the antigen receptor-activated NF-κB pathway. […] To characterize the effects of CID-2858522 on these possible targets of the antigen receptor pathway for NF-κB activation, we first evaluated PMA-induced phosphorylation of Carmal, by phospho-specific antibody immunoblotting, finding no effect of CID-2858522 on this molecular event that initiates formation of the CBM complex (FIG. 7A). […]

Row | SMILES | suppression of XIAP plus TAB-driven NF-κB activation [1] | inhibition of PMA-induced association of CARMA1 or CARMA3 with Bcl-10, MALT, TRAF6, IKKγ, Caspase-8 [2] | disruption of CARMA/MALT1/Bcl-10 (CMB) complex formation ([2]; PMA/Ionomycin, cells or lysate) | suppression of XIAP plus TAB-driven NF-κB activation ([1]; listed as CID-288522)
1 | Cc1ccc2nc(NCCN)c3ncc(C)n3c2c1 [BMS-345541, reference compound] | effectively suppressed | – | – | –
2 | CN(C)CCCn1cc(C2=C(c3c[nH]c4ccccc34)C(=O)NC2=O)c2ccccc21 [Bisindolylmaleimide I, reference compound] | – | inhibited | – | –
3 | Cc1cc2nc(NCCCO)n(CC(=O)c3cc(C(C)(C)C)c(O)c(C(C)(C)C)c3)c2cc1C [Compound 1, 2-(2-(3-Hydroxypropylamino)-5,6-dimethyl-1H-benzo[d]imidazol-1-yl)-1-(3,5-di-tert-butyl-4-hydroxyphenyl)ethanone] | did not inhibit | not by CID-2858522 | did not disrupt | did not
